Assay results reported in ChEMBL document CHEMBL1142026, “Isoindolinone-based inhibitors of the MDM2-p53 protein-protein interaction” (Bioorg Med Chem Lett, 2005).

Legend:
[1] = target: Tumour suppressor p53/oncoprotein Mdm2 (Homo sapiens, UniProt Q00987); test: (§1) Inhibitory concentration against MDM2-p53 interaction in SJSA human sarcoma cells; format: cell-based, SJSA-1
[2] = target: Tumour suppressor p53/oncoprotein Mdm2 (Homo sapiens, UniProt P04637+Q00987); test: as §1; format: cell-based, SJSA-1; details: sjsa-1
Sequence of Tumour suppressor p53/oncoprotein Mdm2 (Homo sapiens, UniProt P04637+Q00987) (P04637 whole entry): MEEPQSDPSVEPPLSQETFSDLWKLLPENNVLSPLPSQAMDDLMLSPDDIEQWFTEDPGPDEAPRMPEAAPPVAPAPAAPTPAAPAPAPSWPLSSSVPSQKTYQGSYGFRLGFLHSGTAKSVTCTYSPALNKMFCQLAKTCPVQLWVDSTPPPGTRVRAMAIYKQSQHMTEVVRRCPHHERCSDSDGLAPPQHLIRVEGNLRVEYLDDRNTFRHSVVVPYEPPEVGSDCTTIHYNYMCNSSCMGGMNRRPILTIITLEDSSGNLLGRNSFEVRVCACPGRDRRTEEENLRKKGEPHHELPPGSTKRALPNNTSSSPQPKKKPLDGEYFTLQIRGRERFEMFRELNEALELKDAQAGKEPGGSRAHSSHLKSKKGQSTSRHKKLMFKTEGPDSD
Sequence of Tumour suppressor p53/oncoprotein Mdm2 (Homo sapiens, UniProt P04637+Q00987) (Q00987 whole entry): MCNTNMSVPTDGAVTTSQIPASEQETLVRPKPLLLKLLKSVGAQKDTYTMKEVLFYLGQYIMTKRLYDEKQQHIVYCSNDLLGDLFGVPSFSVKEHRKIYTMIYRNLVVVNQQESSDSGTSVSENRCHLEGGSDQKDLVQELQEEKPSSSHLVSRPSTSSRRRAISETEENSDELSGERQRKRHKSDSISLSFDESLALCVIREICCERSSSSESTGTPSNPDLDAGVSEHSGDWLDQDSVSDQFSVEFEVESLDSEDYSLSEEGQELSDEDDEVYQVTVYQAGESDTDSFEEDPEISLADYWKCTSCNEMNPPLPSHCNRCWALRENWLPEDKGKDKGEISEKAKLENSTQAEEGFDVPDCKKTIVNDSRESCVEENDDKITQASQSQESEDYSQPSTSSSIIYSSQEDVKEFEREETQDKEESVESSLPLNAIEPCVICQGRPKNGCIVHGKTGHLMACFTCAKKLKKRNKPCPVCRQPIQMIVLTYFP

Sequence of Tumour suppressor p53/oncoprotein Mdm2 (Homo sapiens, UniProt Q00987) (P04637 whole entry): as the sequence (P04637 whole entry) above
Sequence of Tumour suppressor p53/oncoprotein Mdm2 (Homo sapiens, UniProt Q00987) (Q00987 whole entry): as the sequence (Q00987 whole entry) above

Row | Compound | IC50 [1] [µM] | IC50 [2] [µM]
1 | CCCN1C(=O)c2ccccc2C1(OCCCO)c1ccccc1 (centres undefined) | > 500 | –
2 | CCCOC1(c2ccccc2)c2ccccc2C(=O)N1C(Cc1ccc(O)cc1)C(=O)OC (centres undefined) | 90 | –
3 | COc1ccc(C(O)CNC2(c3ccccc3)c3ccccc3C(=O)N2Cc2ccccc2)cc1 (centres undefined) | 70 | –
4 | CCCN1C(=O)c2ccccc2C1(NC(=O)c1ccc(C(C)(C)C)cc1)c1ccc(OCOCC[Si](C)(C)C)cc1 (centres undefined) | 27 | –
5 | CCCOC1(c2ccccc2)c2ccccc2C(=O)N1Cc1ccccc1 (centres undefined) | ~200 | –
6 | CC(C)(C)c1ccc(COC2(c3ccccc3)c3ccccc3C(=O)N2Cc2ccccc2)cc1 (stereo in doubt; 2d) | – | 92
7 | CCCNC1(c2ccccc2)c2ccccc2C(=O)N1Cc1ccccc1 (centres undefined) | ~200 | –
8 | CC(C)(C)c1ccc(COC2(c3ccccc3)c3ccccc3C(=O)N2Cc2ccccc2)cc1 (stereo in doubt; 5) | 92 | –
9 | CCCN1C(=O)c2ccccc2C1(NC(=O)c1ccccc1)c1ccc(C(C)(C)C)cc1 (centres undefined) | 66 | –
10 | CCCN1C(=O)c2ccccc2C1(OCc1ccc(C(C)(C)C)cc1)c1ccccc1 (centres undefined) | > 500 | –

Other lines, results leading:

Row | IC50 [1] [µM] | IC50 [2] [µM] | Compound
11 | 99 | – | CC(C)(C)c1ccc(COC2(c3ccc(Cl)cc3)c3ccccc3C(=O)N2Cc2ccccc2)cc1 (centres undefined)
12 | 100 | – | CCCN1C(=O)c2ccccc2C1(OCCc1ccccn1)c1ccccc1 (centres undefined)
13 | 17.9 | – | COc1cc(COC2(c3ccccc3)c3ccccc3C(=O)N2Cc2ccccc2)cc(OC)c1O (centres undefined)
14 | 91.4 | – | CC(=O)NCCN1C(=O)c2ccccc2C1(OCc1ccc(C(C)(C)C)cc1)c1ccc(Cl)cc1 (centres undefined)
15 | 57 | – | CCCN1C(=O)c2ccccc2C1(OCCc1ccccn1)c1ccc(Cl)cc1 (centres undefined)
16 | 16.4 | – | CCCN1C(=O)c2ccccc2C1(OCCCO)c1ccc(Cl)cc1 (centres undefined)
17 | 14 | – | CC(=O)NCCN1C(=O)c2ccccc2C1(OCc1ccc(C(C)(C)C)cc1)c1ccccc1 (centres undefined)
18 | 42 | – | COc1cc(COC2(c3ccc(Cl)cc3)c3ccccc3C(=O)N2Cc2ccccc2)cc(OC)c1O (centres undefined)
19 | 15.9 | – | O=C1c2ccccc2C(OCCCO)(c2ccc(Cl)cc2)N1Cc1ccccc1 (centres undefined)
20 | ~200 | – | CCCOC1(c2ccccc2)c2ccccc2C(=O)N1CCC (centres undefined)
21 | 76 | – | COc1cc(COC2(c3ccc(Cl)cc3)c3ccccc3C(=O)N2CCNC(C)=O)cc(OC)c1O (centres undefined)
22 | 82 | – | CCCN1C(=O)c2ccccc2C1(OCc1cc(OC)c(O)c(OC)c1)c1ccccc1 (centres undefined)
23 | 26.2 | – | O=C1c2ccccc2C(OCCc2ccccn2)(c2ccc(Cl)cc2)N1Cc1ccccc1 (centres undefined)
24 | 5.3 | – | CCCN1C(=O)c2ccccc2C1(OCc1cc(OC)c(O)c(OC)c1)c1ccc(Cl)cc1 (centres undefined)
